Drawing on patent US20240116912A1, “COMPOUNDS AND METHODS FOR MODULATING FXR” (Terns Pharmaceuticals, Inc., priority 2020, published 2024), this text covers EC50 for 10 molecules.

Assay [1] deals with ligand binding domain (LBD) of recombinant human FXR (Homo sapiens (Human), UniProt Q96RI1). As to the kind of experiment: FXR cell free coactivator (SRC-1) recruitment assay, TR-FRET. The note with it: FXR LBD (amino acids 244-476) with labeled SRC-1 domain, 25° C. for 60 minutes, activity relative to CDCA maximum; read-out: EC50 FXR- Biochemical TR-FRET/μM. How it is done: A cell free coactivator recruitment assay was developed for FXR, to measure the functional potency of novel FXR compounds. In this assay, novel FXR compounds were bound to the ligand binding domain (LBD) of recombinant human FXR. The ability of this liganded homodimeric complex to recruit the co-activator protein steroid receptor coactivator 1 (SRC-1) was measured using Time-Resolved Fluorescence Resonance Energy Transfer (TR-FRET).
The LBD of human FXR (amino acids 244-476) was cloned into an expression vector for protein expression in SF9 insect cells. Purified FXR LBD was incubated in TR-FRET coregulator buffer G (Eurofins) with test compounds (0-10 micromolar) and a labeled nuclear receptor interaction domain of SRC-1 at 25° C. for 60 minutes (final DMSO vehicle concentration was 1.2%). Assays were analyzed using an Envision TR-FRET reader (PerkinElmer Life and Analytical Sciences). Compound activity at each concentration was defined as a percentage of the maximal activity of the natural FXR ligand agonist chenodeoxycholic acid (CDCA) generating a dose response curve.
On the technique in general: Time-resolved FRET reads energy transfer from a long-lived donor to a nearby acceptor.

For assay [2], the target named is full length human FXR protein (Homo sapiens (Human), UniProt Q96RI1). As to the kind of experiment: FXR cellular assay (FXR-SRCP β-gal enzyme fragment complementation in CHO-K1 cells, chemiluminescence). The class given is cell-based. The settings on record: CHO-K1 cells with SRCP-EA and ProLink-labeled FXR, 0-10 micromolar compound, 37° C. for 6h, read-out: EC50 FXR-cell Luminescence/. A digest of the protocol:
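CHO-K1 cells stably expressing ProLink-tagged full-length FXR and SRCP-EA treated with compound (0-10 micromolar, 1% DMSO) for 6 h at 37 °C. Ligand-driven FXR-coactivator binding reconstitutes β-gal; chemiluminescence read after 1 h detection reagent at room temperature.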

Values joined by “and” are separate entries in the source; they are usually repeats but may differ in a detail not shown here. Equal entries are not always repeated. Where only a bound is given, the exact number is not on record here.

Chain of ligand binding domain (LBD) of recombinant human FXR (Q96RI1 254-486): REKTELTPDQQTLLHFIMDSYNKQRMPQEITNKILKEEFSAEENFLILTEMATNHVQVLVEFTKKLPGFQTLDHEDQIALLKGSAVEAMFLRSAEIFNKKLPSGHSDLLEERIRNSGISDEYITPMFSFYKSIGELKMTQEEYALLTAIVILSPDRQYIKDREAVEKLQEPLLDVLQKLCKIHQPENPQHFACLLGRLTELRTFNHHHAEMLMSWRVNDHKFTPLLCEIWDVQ
Chain of ligand binding domain (LBD) of recombinant human FXR (Q15788 whole entry partner, the tested form may be a part): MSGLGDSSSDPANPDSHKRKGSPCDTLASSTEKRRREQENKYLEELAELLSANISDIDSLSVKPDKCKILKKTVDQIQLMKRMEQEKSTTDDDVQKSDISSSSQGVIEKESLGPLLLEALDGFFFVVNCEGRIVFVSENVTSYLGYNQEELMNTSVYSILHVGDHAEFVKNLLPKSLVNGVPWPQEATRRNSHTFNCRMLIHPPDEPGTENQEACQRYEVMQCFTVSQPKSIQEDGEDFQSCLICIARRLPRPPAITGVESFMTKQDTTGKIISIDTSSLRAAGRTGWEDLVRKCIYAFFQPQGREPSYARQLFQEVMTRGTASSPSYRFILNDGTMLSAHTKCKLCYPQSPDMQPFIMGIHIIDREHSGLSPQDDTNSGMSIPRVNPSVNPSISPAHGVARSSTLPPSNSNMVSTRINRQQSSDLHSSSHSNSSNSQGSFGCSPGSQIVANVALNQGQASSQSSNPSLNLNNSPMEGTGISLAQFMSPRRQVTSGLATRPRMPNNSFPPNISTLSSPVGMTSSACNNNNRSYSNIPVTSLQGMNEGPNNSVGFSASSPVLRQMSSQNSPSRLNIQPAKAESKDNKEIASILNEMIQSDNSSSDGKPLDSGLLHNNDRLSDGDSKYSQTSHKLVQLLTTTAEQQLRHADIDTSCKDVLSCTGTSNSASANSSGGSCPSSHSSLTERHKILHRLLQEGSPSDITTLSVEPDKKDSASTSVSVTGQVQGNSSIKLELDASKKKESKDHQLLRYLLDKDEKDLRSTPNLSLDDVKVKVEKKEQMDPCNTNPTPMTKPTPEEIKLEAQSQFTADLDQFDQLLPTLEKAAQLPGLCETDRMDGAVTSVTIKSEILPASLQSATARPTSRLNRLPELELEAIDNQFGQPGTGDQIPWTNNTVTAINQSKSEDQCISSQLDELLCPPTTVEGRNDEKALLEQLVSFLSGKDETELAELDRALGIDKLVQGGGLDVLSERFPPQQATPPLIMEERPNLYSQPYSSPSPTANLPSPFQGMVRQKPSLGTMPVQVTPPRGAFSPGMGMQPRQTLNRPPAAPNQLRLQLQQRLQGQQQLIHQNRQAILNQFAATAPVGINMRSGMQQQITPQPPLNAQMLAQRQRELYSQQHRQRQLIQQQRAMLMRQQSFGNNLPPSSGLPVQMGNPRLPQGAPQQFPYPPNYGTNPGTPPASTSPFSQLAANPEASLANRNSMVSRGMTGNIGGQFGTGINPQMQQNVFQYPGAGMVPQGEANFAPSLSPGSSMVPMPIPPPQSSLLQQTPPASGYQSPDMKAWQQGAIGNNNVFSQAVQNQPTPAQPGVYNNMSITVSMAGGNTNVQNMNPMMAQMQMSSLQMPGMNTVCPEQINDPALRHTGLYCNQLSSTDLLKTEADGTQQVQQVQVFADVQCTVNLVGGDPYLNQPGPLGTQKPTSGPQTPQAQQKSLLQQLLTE
Chain of full length human FXR protein (Q96RI1 whole entry, the tested form may be a part): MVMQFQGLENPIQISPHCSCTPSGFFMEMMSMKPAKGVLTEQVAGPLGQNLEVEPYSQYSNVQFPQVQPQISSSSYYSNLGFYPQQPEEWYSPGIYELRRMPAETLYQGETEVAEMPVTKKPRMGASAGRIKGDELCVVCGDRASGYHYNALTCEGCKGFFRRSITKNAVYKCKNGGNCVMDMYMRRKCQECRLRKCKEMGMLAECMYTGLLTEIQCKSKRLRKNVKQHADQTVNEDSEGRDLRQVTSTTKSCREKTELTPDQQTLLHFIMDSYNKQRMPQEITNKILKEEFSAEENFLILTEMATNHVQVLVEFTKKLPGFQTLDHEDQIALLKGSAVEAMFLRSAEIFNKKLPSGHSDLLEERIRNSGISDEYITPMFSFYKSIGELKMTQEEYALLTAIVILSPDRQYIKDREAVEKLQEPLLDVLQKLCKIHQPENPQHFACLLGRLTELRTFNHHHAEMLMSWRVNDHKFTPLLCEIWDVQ

On to `O=c1[nH]c(-c2ccc(N3CCC(OCc4c(-c5c(Cl)cccc5Cl)noc4C4CC4)C3)cc2)no1` (centres unmarked) [Example 15, 3-(4-(3-((5-cyclopropyl-3-(2,6-dichlorophenyl)isoxazol-4-yl)methoxy)pyrrolidin-1-yl)phenyl)-1,2,4-oxadiazol-5(4H)-one], for which the EC50 came to 0.892 µM in assay [1] and 5.51 µM in assay [2].

Regarding `O=c1[nH]nc(-c2ccc(N3CCC(OCc4c(-c5c(Cl)cccc5Cl)noc4C4CC4)CC3)cc2)o1` [Example 12, 5-(4-(4-((5-cyclopropyl-3-(2,6-dichlorophenyl)isoxazol-4-yl)methoxy)piperidin-1-yl)phenyl)-1,3,4-oxadiazol-2(3H)-one], the EC50 in assay [1] is 0.0737 µM; in assay [2], 0.437 µM.

As for `O=c1cn[nH]c(=O)n1-c1ccc(N2CCC(OCc3c(-c4c(Cl)cccc4Cl)noc3C3CC3)CC2)cc1` [Example 62, 4-(4-(4-((5-cyclopropyl-3-(2,6-dichlorophenyl)isoxazol-4-yl)methoxy)piperidin-1-yl)phenyl)-1,2,4-triazine-3,5(2H,4H)-dione], the EC50 in assay [1] is 6.35 µM and 6.07 µM; in assay [2], > 10 µM and 4.73 µM.

Turning to `C[C@@H]1CN(c2ccc(-c3noc(=O)[nH]3)cc2)CC[C@H]1OCc1c(-c2c(Cl)cccc2Cl)noc1C1CC1` [Example 34, 3-(4-((3R,4R)-4-((5-cyclopropyl-3-(2,6-dichlorophenyl)isoxazol-4-yl)methoxy)-3-methylpiperidin-1-yl)phenyl)-1,2,4-oxadiazol-5(4H)-one], the EC50 in assay [1] was determined as 0.153 µM; in assay [2], 0.785 µM.

Consider `O=c1[nH]c(-c2n[nH]c(N3CCC(OCc4c(-c5c(Cl)cccc5Cl)noc4C4CC4)CC3)n2)no1` [Example 45, 3-(5-(4-((5-cyclopropyl-3-(2,6-dichlorophenyl)isoxazol-4-yl)methoxy)piperidin-1-yl)-1H-1,2,4-triazol-3-yl)-1,2,4-oxadiazol-5(4H)-one], for which the EC50 was determined as 0.61 µM in assay [1] and 10 µM in assay [2].

As to `O=c1[nH]nc(-c2ccc(N3CCC(OCc4c(-c5c(Cl)cccc5Cl)noc4C4CC4)CC3)cc2F)o1` [Example 48, 5-(4-(4-((5-cyclopropyl-3-(2,6-dichlorophenyl)isoxazol-4-yl)methoxy)piperidin-1-yl)-2-fluorophenyl)-1,3,4-oxadiazol-2(3H)-one], the EC50 in assay [1] came to 0.0416 µM; in assay [2], 0.336 µM.

As for `C[C@@H]1CN(c2ccc(-c3noc(=O)[nH]3)cc2)CC[C@@H]1OCc1c(-c2c(Cl)cccc2Cl)noc1C1CC1` [Example 31, 3-(4-((3R,4S)-4-((5-cyclopropyl-3-(2,6-dichlorophenyl)isoxazol-4-yl)methoxy)-3-methylpiperidin-1-yl)phenyl)-1,2,4-oxadiazol-5(4H)-one], the EC50 in assay [1] turned out to be 0.045 µM; in assay [2], 0.271 µM.

As for `O=c1[nH]nc(-c2ccc(N3[C@@H]4CC[C@H]3C[C@@H](OCc3c(-c5ccccc5OC(F)(F)F)noc3C3CC3)C4)cc2)o1` [Example 65, 5-(4-((1R,3r,5S)-3-((5-cyclopropyl-3-(2-(trifluoromethoxy)phenyl)isoxazol-4-yl)methoxy)-8-azabicyclo[3.2.1]octan-8-yl)phenyl)-1,3,4-oxadiazol-2(3H)-one], the figures for the EC50 in assay [1] and in assay [2] were 0.0221 µM and 0.954 µM, respectively.

For the molecule `O=c1[nH]c(-c2coc(N3CCC(OCc4c(-c5c(Cl)cccc5Cl)noc4C4CC4)CC3)n2)no1` [Example 29, 3-(2-(4-((5-cyclopropyl-3-(2,6-dichlorophenyl)isoxazol-4-yl)methoxy)piperidin-1-yl)oxazol-4-yl)-1,2,4-oxadiazol-5(4H)-one], the EC50 in assay [1] was found to be 0.231 µM; in assay [2], 3.19 µM.

`O=c1cc(-c2ccc(N3CCC(OCc4c(-c5c(Cl)cccc5Cl)noc4C4CC4)CC3)nc2)o[nH]1` [Example 59, 5-(6-(4-((5-cyclopropyl-3-(2,6-dichlorophenyl)isoxazol-4-yl)methoxy)piperidin-1-yl)pyridin-3-yl)isoxazol-3(2H)-one]: the values for the EC50 in assay [1] and in assay [2] were 0.0179 µM and 0.264 µM, respectively.
